In US8487118B2, “Cyclic diones and their use as insecticides, acaricides and/or fungicides” (Bayer CropScience AG, priority 2009, dated 2013):

How the values were obtained:
[1] = tested on: white fly (Bemisia tabaci); assay: Bemisia tabaci-Test (BEMITA); format: in vivo; conditions: 168 h, spray on cotton plants, after 7 days
Description: Bemisia tabaci-Test (BEMITA)
Cotton plants (Gossypium hirsutum) infested with eggs, larvae and pupae of the white fly (Bemisia tabaci) are sprayed with a test solution containing the desired concentration of the active ingredient.

[2] = tested on: two spotted spidermite (Tetranychus urticae); assay: Tetranychus urticae-Test, OP-resistant (TETRUR spray application); format: in vivo; conditions: 144 h, spray on French beans, after 6 days
Description: Tetranychus urticae-Test; (OP-Resistant (TETRUR Spray Application)
(§1) • Solvent: 78.0 parts by weight acetone • 1.5 parts by weight dimethylformamide • Emulsifier: 0.5 parts by weight alkylarylpolyglcolether

[3] = tested on: am. serpentine leaf miner (Liriomyza trifolii); assay: Liriomyza trifolii-Test (LIRITR spray application); format: in vivo; conditions: 168 h, spray on French bean leaf-disks, after 7 days
Description: Liriomyza trifolii-Test (LIRITR Spray Application)
(§2) • Solvent: 78.0 parts by weight of acetone • 1.5 parts by weight of dimethylformamide • Emulsifier: 0.5 parts by weight of alkylaryl polyglycolether
French bean (Phaseolus vulgaris) leaf-disks infested with larvaes of the am. serpentine leaf miner (Liriomyza trifolii) are sprayed with a test solution containing the desired concentration of the active ingredient.

[4] = tested on: green peach aphid (Myzus persicae); assay: Myzus persicae-Test (MYZUPE spray application); format: in vivo; conditions: 144 h, spray on Chinese cabbage leaf-disks, after 6 days
Description: Myzus persicae-Test; (MYZUPE Spray Application)
as §1
Chinese cabbage (Brassica pekinesis) leaf-disks infected with all instars of the green peach aphid (Myzus persicae), are sprayed with a preparation of the active ingredient at the desired concentration.

[5] = tested on: mustard beetle larvae (Phaedon cochleariae); assay: Phaedon cochleariae-Test (PHAECO spray application); format: in vivo; conditions: 168 h, spray on Chinese cabbage leaf-disks, after 7 days
Description: Phaedon cochleariae-Test; (PHAECO Spray Application)
as §2
Chinese cabbage (Brassica pekinesis) leaf-disks are sprayed with a preparation of the active ingredient of the desired concentration.

[6] = tested on: braun planthopper (Nilaparvata lugens); assay: Nilaparvata lugens-Test (NILALU hydroponic application); format: in vivo; conditions: after the specified period of time
Description: Nilaparvata lugens-Test; (NILALU Hydroponic Application)
as §2

[7] = tested on: fall armyworm larvae (Spodoptera frugiperda); assay: Spodoptera frugiperda-Test (SPODFR spray application); format: in vivo; conditions: 168 h, spray on maize leaf sections, after 7 days
Description: Spodoptera frugiperda-Test (SPODFR Spray Application)
as §1
Maize (Zea mais) leaf sections are sprayed with a preparation of the active ingredient of the desired concentration. Once dry, the leaf sections are infested with fall armyworm larvae (Spodoptera frugiperda). […] 100% means that all caterpillars have been killed and 0% means that none of the caterpillars have been killed.

[8] = tested on: two-spotted spider mite (Tetranychus urticae); assay: Tetranychus-Test (OP-resistant); format: in vivo; conditions: read-out: mortality in %
Description: Tetranychus-Test (OP-Resistant)

[9] = tested on: Phytophthora infestans; format: in vivo; conditions: 500 ppm, tomato, preventive, 7 days after the inoculation
[10] = tested on: cotton aphid (Aphis gossypii); assay: Aphis gossypii Test (APHIGO); format: in vivo; conditions: 144 h, spray on cotton leaves, after 6 days
Description: Aphis gossypii Test (APHIGO)
(§3) After 6 days mortality in % is determined.

[11] = tested on: mustard beetle larvae (Phaedon cochleariae); assay: Phaedon cochleariae larvae-Test; conditions: in Brassica oleracea, 168 h, read-out: mortality in %
[12] = tested on: larvae of the diamondback moth (Plutella xylostella/sensible strain); assay: Plutella xylostella-Test (PLUTMA); format: in vivo; conditions: in Brassica oleracea, 168 h, read-out: mortality in %
Description: Plutella xylostella-Test (PLUTMA)

[13] = tested on: green peach aphid (Myzus persicae); assay: Myzus persicae-Test (MYZUPE); format: in vivo; conditions: 144 h, spray on cabbage leaves, after 6 days
Description: Myzus persicae-Test (MYZUPE)
as §3

Compound | mortality at 20 ppm [1] [%] | mortality at 500 g/ha [2] [%] | mortality at 500 g/ha [3] [%] | mortality at 500 g/ha [4] [%] | mortality at 500 g/ha [5] [%] | mortality at 500 g/ha [6] [%] | mortality at 500 g/ha [7] [%] | further results
O=C1CC2(CCOCC2)CC(O)=C1c1cc(-c2ccc(F)cc2)ccc1Cl [Compound T75] | ≥ 80 | ≥ 80 | ≥ 80 | ≥ 80 | – | – | – | –
Cc1ccc(-c2ccc(F)cc2)cc1C1=C(O)CC2(CCOCC2)CC1=O [Compound T74] | ≥ 80 | – | ≥ 80 | – | ≥ 80 | ≥ 80 | ≥ 80 | mortality at 20 ppm [8]: ≥ 80%
Cc1ccc(C)c(C2=C(OC(=O)N(C)CCC#N)CC3(CCOCC3)CC2=O)c1 | – | – | – | – | – | – | – | melting point: 108 to 114 °C
CCc1cc(C)cc(CC)c1C1=C(O)CC2(CCOCC2)CC1=O [Compound T22] | – | – | – | ≥ 80 | – | – | – | –
Cc1ccc(-c2ccc(Cl)cc2)cc1C1=C(O)CC2(CCOCC2)CC1=O [Compound T3] | ≥ 80 | ≥ 80 | ≥ 80 | – | – | ≥ 80 | ≥ 80 | Efficacy in % [9]: 75%; mortality at 100 ppm [10]: ≥ 80%; mortality at 100 ppm [11]: ≥ 80%; mortality at 100 ppm [12]: ≥ 80%; mortality at 100 ppm [13]: ≥ 80%
Cc1ccc(-c2ccc(F)cc2)c(C)c1C1=C(O)CC2(CCOCC2)CC1=O [Compound T76] | – | ≥ 80 | – | ≥ 80 | ≥ 80 | – | ≥ 80 | –
